Results reported in patent publication US5674864A, “N-substituted derivatives of α-mercapto alkylamines, their preparation process and the intermediates obtained, their use as medicaments and the compositions containing them” (Roussel Uclaf, priority 1990, dated 1997).

Tests used:
enkephalinase = biological target: T1, enkephalinase (Rattus norvegicus, UniProt P07861); assay: Determination of the enkephalinase inhibiting effect; type: biochemical; details: renal membrane fraction of a rat; substrate Succinyl-Ala-Ala-Phe-amino-methylcoumarine; 37° C., 30 minutes, pH 7.5
T1 construct: from tissue; host or cells: rat kidney, renal membrane fraction solubilised with octyl beta-D-glucopyranoside (100,000 g supernatant)
T1 sequence (P07861 1-750): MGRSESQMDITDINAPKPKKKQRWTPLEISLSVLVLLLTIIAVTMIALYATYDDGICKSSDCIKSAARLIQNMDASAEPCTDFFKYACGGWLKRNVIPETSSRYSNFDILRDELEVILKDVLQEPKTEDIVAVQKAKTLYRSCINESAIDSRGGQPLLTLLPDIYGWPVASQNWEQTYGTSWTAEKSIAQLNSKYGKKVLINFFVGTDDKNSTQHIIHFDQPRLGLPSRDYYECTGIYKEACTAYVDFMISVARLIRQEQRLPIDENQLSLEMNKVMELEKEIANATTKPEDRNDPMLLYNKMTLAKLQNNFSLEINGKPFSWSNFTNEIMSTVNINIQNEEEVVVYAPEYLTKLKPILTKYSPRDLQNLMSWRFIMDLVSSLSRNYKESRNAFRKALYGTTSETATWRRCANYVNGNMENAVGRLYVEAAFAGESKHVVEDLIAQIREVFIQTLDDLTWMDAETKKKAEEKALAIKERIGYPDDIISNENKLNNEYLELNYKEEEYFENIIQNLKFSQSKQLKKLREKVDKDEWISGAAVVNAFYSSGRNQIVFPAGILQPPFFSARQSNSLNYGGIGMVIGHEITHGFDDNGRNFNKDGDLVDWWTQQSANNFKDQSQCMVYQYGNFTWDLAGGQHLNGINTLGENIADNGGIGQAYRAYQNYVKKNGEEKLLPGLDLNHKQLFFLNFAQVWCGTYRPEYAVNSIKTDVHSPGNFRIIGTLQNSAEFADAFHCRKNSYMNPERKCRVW
Method: 1) Determination of the enkephalinase inhibiting effect
The enkephalinase activity was determined from a renal membrane fraction of a rat. The kidneys were removed on ice and homogenized in a HEPES 0.05M pH 7.5 buffer containing magnesium chloride (50 times the volume). After a first centrifugation at 1,500 g, the specific fraction was obtained from a centrifugation at 15,000 g for 20 minutes. The deposit was then washed and suspended in a HEPES buffer and kept at -20° C. An aliquot of this membrane preparation was put in the presence of octyl beta-D-glucopyranoside (50 mM as final […]) for 15 minutes at 4° C. After centrifugation at 100,000 g for one hour, the supernatant was removed and frozen in aliqots at -20° C. The concentration of proteins was determined by the method using Comassie's blue.
An aliquot of the protein fraction thus prepared was preincubated at 25° C. for 10 minutes in a HEPES 0.05M pH 7.5 buffer or in the presence of the product to be studied. The substrate added was a non-natural enkephalin of formula Succinyl-Ala-Ala-Phe-amino-methylcoumarine (reference 1) (40mM as final concentration). The incubation continued at 37° C. for 30 minutes and then the reaction was stopped by heating to 95° C. for 5 minutes and each incubate was centrifuged. A solution of amino peptidase M (4 mM as final concentration) and thiorphan (reference 2) (10^-5 M) was added to the supernatant and the mixture was taken to 37° C. for one hour. The reaction was stopped as previously described and the fluorescence of 7-amino-methyl-coumarine produced was determined. The effect of the products to be tested was determined by calculating the IC50, the concentration which inhibited the hydrolysis of the substrate by 50%.
Reference 1: R. A. Munford, P. A. Pierzchala, A-W Strauss and M. Zimmerman, Purification of a membrane-bound metalloendo peptidase from porcine kidney that degrades peptides hormones. Proc. Natl. Acad. Sci 78, No. 11, p. 6623.
Reference 2: Inhibitor of enkephalinase described in Example 20 of French Patent No. 2,480,747.

[1] = Stretchings caused by acetic acid in a mouse (analgesic activity); type: in vivo; details: 0.25 h, PO, half-an-hour before intraperitoneal acetic acid, 15 minutes observation, read-out: DA50 (dose which allows a decrease of 50% in the number of stretchings)
Method: 2) Study of analgesic activity in a mouse Stretchings caused by acetic acid in a mouse
The test used was based on the fact indicated by KOSTER, et al [Fed. Proc. (1959), Vol. 1B, p. 412] according to which the intraperitoneal injection of acetic acid causes, in a mouse, repeated stretching and twisting movements which can persist for more than 6 hours. Analgesics prevent or lessen this syndrome which can be considered as the outward display of a widespread abdominal pain. A 1% solution of acetic acid in water was used and was administered at a volume of 10 ml/kg. The studied product was administered by buccal route half-an-hour before the acetic acid injection, the mice having gone without food for at least 6 hours. The stretchings were observed and counted for Each mouse for an observation period of 15 minutes. The results were expressed by means of the DA50, that is the dose which allows a decrease of 50% in the number of stretchings to be obtained relative to the control animals.

Hot-plate test = type: in vivo; details: Mus musculus, 0.5 h, po, male mice, plate at 56° C., 30 minutes after oral administration; for ED50: read-out: DA50 (dose which increased the reaction time by 50%); for ED100: read-out: DA100 (dose which increased the reaction time by 100%)
Method: Male mice weighing 22 g were placed individually on a copper plate maintained at 56° C. by a thermostatically-controlled water bath. […] The reaction time to the heat stimulus was noted and only animals reacting within 4.5 and 6.5 seconds were retained. The reaction time to the pain was measured 30 minutes after oral administration. The variations in the reaction time were expressed as a percentage of the initial time. The DA50 and DA100, or doses which increased the reaction time by 50 and 100%, taking into account variations in the control group, were determined by a graph or by the method of the least squares.

SMILES	IC50 (enkephalinase)	ED50 [1]	ED50 (Hot-plate test)	ED100 (Hot-plate test)
CONC(=O)NC(CSC(C)=O)Cc1ccccc1 (stereo not drawn) [Example 1, S-[2-(3-methoxy-ureido)-3-phenyl-propyl]-ethanethioate]	87 nM	71 mg/kg	–	–
CC(=O)SCC(Cc1ccccc1)NC(=O)N(C)O (stereo not drawn) [Example 5]	–	–	100 mg/kg	200 mg/kg
COC(=O)CNC(=O)NC(CSC(C)=O)Cc1ccccc1 (stereo not drawn) [Example 11, Methyl N-[[[2-(acetylthio)-1-(phenylmethyl)-ethyl]-amino]-carbonyl]-glycinate]	–	85 mg/kg	100 mg/kg	–
CCCN(CCC)C(=O)NC(CSC(C)=O)Cc1ccccc1 (stereo not drawn) [Example 17, S-[2-[3-bis(propyl)-ureido]-3-phenyl-propyl]-ethanethioate]	48 nM	–	–	–

Continued by falling IC50 (enkephalinase), values first:

IC50 (enkephalinase)	SMILES	ED50 [1]	ED50 (Hot-plate test)	ED100 (Hot-plate test)
180 nM	CCCN(CCC)C(=O)NC(CS)Cc1ccccc1 (single isomer, unassigned; (+)) [Example 18, (+) N,N-dipropyl-N'-[2-mercapto-1-(phenylmethyl)-ethyl]urea]	33 mg/kg	33 mg/kg	100 mg/kg
100 nM	CC(=O)SCC(Cc1ccccc1)NC(=O)Nc1ccccc1 (stereo not drawn) [Example 15, S-[2-(3-phenyl-ureido)-3-phenylpropyl]ethanethioate]	–	–	–
70 nM	O=C(Nc1ccccc1)NC(CS)Cc1ccccc1 (single isomer, unassigned; (+)) [Example 16]	50 mg/kg	–	–
3.5 nM	CN(O)C(=O)NC(CS)Cc1ccccc1 (single isomer, unassigned; (+)) [Example 6, (+) N-hydroxy-N'-[2-mercapto-1-(phenylmethyl)-ethyl]-N-methyl urea]	–	–	–
